# Laboratory results published in PMC4454674, “Functional Coupling of Duplex Translocation to DNA Cleavage in a Type I Restriction Enzyme” (PLoS ONE, 2015).
# Molecular target: T1, EcoR124I (HsdR reconstituted with HsdS-HsdM2 methylase) (Escherichia coli, UniProt P10486)
# T1 construct: holoenzyme reconstituted from purified HsdR (pTrcR124) and EcoR124I methylase HsdS-HsdM2 (pJS4M, JM109(DE3)), on plasmid DNA with one site; with Type I restriction enzyme EcoR124I/EcoR124II methylase subunit; Type I restriction enzyme EcoR124I specificity subunit
# T1 sequence (P10486 1-1038): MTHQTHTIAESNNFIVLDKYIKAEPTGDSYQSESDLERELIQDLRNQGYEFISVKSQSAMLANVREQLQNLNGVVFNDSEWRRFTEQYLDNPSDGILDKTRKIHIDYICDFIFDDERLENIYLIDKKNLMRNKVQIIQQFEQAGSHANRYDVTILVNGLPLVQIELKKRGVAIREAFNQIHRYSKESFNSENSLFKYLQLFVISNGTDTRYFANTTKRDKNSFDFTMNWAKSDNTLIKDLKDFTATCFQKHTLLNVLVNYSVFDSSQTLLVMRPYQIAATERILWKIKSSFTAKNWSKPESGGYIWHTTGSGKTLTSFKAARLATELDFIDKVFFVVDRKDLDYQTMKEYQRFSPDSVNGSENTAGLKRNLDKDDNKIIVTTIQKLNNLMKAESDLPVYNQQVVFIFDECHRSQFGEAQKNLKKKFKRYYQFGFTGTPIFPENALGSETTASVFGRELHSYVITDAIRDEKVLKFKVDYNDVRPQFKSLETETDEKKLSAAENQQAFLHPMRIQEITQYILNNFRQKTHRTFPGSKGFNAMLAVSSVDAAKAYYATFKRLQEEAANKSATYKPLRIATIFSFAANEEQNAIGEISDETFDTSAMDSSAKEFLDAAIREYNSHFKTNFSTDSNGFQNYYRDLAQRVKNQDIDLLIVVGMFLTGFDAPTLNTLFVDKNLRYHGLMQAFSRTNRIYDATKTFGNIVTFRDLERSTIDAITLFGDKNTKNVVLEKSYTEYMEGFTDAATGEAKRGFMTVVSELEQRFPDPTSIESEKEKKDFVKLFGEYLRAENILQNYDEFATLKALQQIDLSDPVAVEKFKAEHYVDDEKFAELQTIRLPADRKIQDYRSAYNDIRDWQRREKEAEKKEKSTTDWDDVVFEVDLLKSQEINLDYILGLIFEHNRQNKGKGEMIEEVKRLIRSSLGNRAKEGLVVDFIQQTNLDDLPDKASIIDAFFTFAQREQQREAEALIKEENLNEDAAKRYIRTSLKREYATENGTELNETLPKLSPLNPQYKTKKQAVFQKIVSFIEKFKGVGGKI
# T1 sequence (P10485 1-404 partner): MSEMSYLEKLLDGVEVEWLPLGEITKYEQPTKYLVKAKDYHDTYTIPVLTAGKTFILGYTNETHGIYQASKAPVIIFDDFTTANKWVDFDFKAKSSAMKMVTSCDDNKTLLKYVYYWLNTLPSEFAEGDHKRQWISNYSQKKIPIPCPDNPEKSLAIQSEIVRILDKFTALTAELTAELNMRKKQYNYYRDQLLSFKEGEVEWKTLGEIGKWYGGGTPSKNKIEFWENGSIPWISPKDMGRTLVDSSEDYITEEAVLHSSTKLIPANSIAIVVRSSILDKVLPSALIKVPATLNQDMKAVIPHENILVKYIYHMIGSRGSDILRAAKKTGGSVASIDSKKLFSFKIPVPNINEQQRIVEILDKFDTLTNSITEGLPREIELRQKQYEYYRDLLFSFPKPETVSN
# T1 sequence (P10484 1-520 partner): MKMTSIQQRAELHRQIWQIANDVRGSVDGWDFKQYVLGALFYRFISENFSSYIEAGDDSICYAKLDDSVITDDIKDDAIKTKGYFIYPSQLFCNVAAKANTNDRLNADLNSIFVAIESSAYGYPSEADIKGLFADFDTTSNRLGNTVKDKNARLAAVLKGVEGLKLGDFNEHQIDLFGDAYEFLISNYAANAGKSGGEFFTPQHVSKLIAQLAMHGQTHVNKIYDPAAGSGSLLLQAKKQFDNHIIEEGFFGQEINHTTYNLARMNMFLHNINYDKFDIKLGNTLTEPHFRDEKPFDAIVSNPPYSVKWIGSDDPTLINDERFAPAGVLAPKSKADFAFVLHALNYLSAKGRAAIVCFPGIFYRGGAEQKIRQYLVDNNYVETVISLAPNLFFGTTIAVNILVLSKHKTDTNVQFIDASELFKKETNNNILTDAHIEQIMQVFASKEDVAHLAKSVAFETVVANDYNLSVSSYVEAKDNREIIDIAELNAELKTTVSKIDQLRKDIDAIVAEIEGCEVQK
# Experiment: DNA-dependent ATPase, gamma-32P-ATP with TLC
# Assay type: biochemical
# Conditions: 2 mM ATP; 15 nM methylase, 90 nM HsdR, 90 nM plasmid DNA; 10 mM MgCl2; pH 7.9; 37 C; turnover only; gamma-32P-ATP tracer
smiles,measurement,value
Nc1ncnc2c1ncn2[C@@H]1O[C@H](COP(=O)(O)OP(=O)(O)OP(=O)(O)O)[C@@H](O)[C@H]1O [ATP],"DNA-dependent ATPase, gamma-32P-ATP with TLC",The results for the WT enzyme reproduce its previously reported ATPase activity
